# Reference: patent publication US20090062267A1, “L-ALANINE DERIVATIVES AS a5beta1 ANTAGONISTS” (ASTRAZENECA AB, priority 2007, published 2009)
# Target: recombinant human α5β1 (Homo sapiens, UniProt P05556+P08648)
# Assay: In Vitro Binding Assay (a): inhibition of binding of α5β1 integrin to a fragment of human fibronectin (Fn9-10), Origen electrochemiluminescence
# Conditions: geometric mean where tested more than once
# Excerpt: The assay determined the ability of compounds to inhibit binding of α5β1 integrin to a cognate ligand, a fragment of human fibronectin. The assay used Origen technology (IGEN International) to measure the compound activity. Briefly, α5β1 integrin was coated onto epoxy-paramagnetic beads (Dynal Biotech UK, Bromborough, Wirral, CH62 3QL, UK, Catalogue No 140.11) and biotinylated-fibronectin ligand was coupled to strepatividin labeled Tag-NHS-Ester (BioVeris Corporation, Witney, Oxfordshire, OX28 4GE, UK, Catalogue No 110034). The ruthenium-labeled tag emits an electrochemiluminescence signal upon stimulation which is detected by the Origen reader. Thus, interaction of integrin and ligand causes association of bead and tag, and the resulting electrochemiluminescence signal reflects the level of integrin interaction with fibronectin.
# 20 μg of recombinant human α5β1 was coated onto 4×10(7) epoxy-paramagnetic beads according to manufacturers instructions at 4° C. for 24 hours. Integrin coating and corresponding activity was subsequently measured for each batch but typically, 25 ng of coated protein was used per assay well.
# A DNA fragment encoding the domains 9-10 (amino-acids 1325-1509) of human fibronectin (Swiss-Prot Accession No. P02751) was isolated from cDNA libraries using standard molecular biology and PCR cloning techniques. The cDNA fragment was sub-cloned into a pT73.3 expression vector containing a GST-epitope tag (developed at AstraZeneca; Bagnall et al., Protein Expression and Purification, 2003, 27: 1-11). Following expression in E. coli, the expressed protein, termed Fn9-10, was purified using the GST-tag using standard purification techniques. The recombinant Fn9-10 was subsequently biotinylated using a EZ-link Sulfo-NHS-LC-Biotinylation kit (Perbio Science UK Ltd., Cramlington, Northumberland, NE23 1WA, UK, Catalogue No. 21335) and made to give a final concentration of approximately 1 mg/ml. Tag-NHS-Ester was labeled with streptavidin by incubation at room temperature following manufacturers instructions and buffer-exchanged into PBS to give a concentration of 0.5 mg/ml. Immediately prior to the assay, biotinylated-Fn9-10 and Streptavidin-labeled Tag were diluted in Assay Buffer to give a final concentrations of 0.6 ug/ml and 1.5 ug/ml respectively. The Fn9-10 and Tag solutions were then mixed together in equal volumes and incubated on ice for at least 30 minutes prior to the assay.
# Aliquots (20 μl) of each compound dilution were placed into each well of a 384-well round bottomed polypropylene plate (Matrix Technologies, Wilmslow, Cheshire, SK9 3LP, Catalogue No. 4340 384).
# For the assay, 25 ng (20 ul) of a5b1-bead suspension and 40 μl of the Fn9-10/Tag pre-incubated solution were added to each well containing 20 μl of compound or control solution. Assay plates were then incubated at room temperature for a minimum of 6 hours before being analysed on an Origen plate reader. The minimum value was subtracted from all values, and the signal was plotted against compound concentration to generate IC50 data.
# The data in the above table was generated in an assay substantially as described above in relation to Binding Assay (a). Some of the compounds shown in the table were tested more than once in the assay. For those compounds the IC50 value shown is the geometric mean of the measured IC50 values.
# Sequence of recombinant human α5β1 (P08648 42-1049): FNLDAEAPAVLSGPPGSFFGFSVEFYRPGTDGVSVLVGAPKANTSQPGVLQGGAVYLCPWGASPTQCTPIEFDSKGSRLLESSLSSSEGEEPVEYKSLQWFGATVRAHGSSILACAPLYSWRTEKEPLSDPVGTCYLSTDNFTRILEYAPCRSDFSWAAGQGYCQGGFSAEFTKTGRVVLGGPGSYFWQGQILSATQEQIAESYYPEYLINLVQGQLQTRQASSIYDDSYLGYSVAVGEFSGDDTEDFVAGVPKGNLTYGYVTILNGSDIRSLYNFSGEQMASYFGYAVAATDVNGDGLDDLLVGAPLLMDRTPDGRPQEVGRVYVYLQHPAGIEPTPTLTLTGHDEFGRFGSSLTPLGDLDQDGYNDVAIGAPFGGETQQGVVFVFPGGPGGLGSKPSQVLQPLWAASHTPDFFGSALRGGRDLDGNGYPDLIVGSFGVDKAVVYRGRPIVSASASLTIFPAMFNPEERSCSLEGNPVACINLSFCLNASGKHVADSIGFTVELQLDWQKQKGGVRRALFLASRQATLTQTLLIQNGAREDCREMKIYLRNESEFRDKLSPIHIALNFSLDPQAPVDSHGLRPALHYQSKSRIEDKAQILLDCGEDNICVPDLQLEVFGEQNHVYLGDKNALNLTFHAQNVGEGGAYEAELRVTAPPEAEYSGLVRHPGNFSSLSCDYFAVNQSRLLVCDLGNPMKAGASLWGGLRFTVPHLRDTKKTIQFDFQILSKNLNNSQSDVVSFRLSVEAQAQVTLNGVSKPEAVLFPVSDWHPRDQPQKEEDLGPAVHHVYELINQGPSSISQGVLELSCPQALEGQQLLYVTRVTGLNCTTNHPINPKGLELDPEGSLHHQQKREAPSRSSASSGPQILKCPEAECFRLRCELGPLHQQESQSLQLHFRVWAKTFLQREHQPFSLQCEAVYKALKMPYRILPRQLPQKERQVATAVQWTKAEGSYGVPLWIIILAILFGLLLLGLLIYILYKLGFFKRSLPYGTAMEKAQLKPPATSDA
# Sequence of recombinant human α5β1 (P05556 21-798): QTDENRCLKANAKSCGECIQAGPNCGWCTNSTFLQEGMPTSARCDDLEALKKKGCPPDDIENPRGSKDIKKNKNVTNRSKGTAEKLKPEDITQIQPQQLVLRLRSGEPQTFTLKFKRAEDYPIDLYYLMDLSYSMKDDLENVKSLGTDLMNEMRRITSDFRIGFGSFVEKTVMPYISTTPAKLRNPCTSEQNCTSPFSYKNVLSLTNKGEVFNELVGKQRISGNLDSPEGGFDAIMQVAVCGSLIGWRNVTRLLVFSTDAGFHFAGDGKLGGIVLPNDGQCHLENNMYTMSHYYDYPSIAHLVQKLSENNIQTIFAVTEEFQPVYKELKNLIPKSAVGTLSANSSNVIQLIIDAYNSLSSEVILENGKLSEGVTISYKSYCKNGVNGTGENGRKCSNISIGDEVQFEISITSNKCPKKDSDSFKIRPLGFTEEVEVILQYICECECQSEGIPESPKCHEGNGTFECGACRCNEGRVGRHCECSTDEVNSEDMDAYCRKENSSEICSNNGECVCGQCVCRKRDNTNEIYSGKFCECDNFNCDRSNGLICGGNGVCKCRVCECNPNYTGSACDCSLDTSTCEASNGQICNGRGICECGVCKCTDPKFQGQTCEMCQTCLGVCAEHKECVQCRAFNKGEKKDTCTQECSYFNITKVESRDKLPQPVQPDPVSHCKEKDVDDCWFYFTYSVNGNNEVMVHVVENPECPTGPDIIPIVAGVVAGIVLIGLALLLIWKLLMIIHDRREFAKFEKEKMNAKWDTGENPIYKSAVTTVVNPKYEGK
row,IC50 [nM],SMILES
1,229,"CNc1cccc(CCOc2ccc(C[C@H](NC(=O)c3ccc(C)s3)C(=O)O)cc2)n1 [Example 1.3, O-{2-[6-(methylamino)pyridin-2-yl]ethyl}-N-[(5-methyl-2-thienyl)carbonyl]-L-tyrosine]"
2,129,"CNc1cccc(CCOc2ccc(C[C@H](NC(=O)c3c[nH]nc3C)C(=O)O)cc2)n1 [Example 1.15, O-{2-[6-(methylamino)pyridin-2-yl]ethyl}-N-[(3-methyl-1H-pyrazol-4-yl)carbonyl]-L-tyrosine]"
3,2.5,"O=C(N[C@@H](Cc1ccc(CCCc2ccc3c(n2)NCCC3)nc1)C(=O)O)c1sccc1Cl [Example 10, N-[(3-chloro-2-thienyl)carbonyl]-3-{6-[3-(5,6,7,8-tetrahydro-1,8-naphthyridin-2-yl)propyl]pyridin-3-yl}-L-alanine]"
4,250,"CNc1cccc(CCOc2ccc(C[C@H](NC(=O)c3ocnc3C)C(=O)O)cc2)n1 [Example 1.18, O-{2-[6-(methylamino)pyridin-2-yl]ethyl}-N-[(4-methyl-1,3-oxazol-5-yl)carbonyl]-L-tyrosine]"
5,15,"CNc1cccc(CCOc2ccc(C[C@H](NC(=O)c3cc(Cl)sc3Cl)C(=O)O)cc2)n1 [Example 1.11, N-[(2,5-dichloro-3-thienyl)carbonyl]-O-{2-[6-(methylamino)pyridin-2-yl]ethyl}-L-tyrosine]"
6,35,"CNc1cccc(CCOc2ccc(C[C@H](NC(=O)c3ncc(Cl)cc3Cl)C(=O)O)cc2)n1 [Example 1.24, N-[(3,5-dichloropyridin-2-yl)carbonyl]-O-{2-[6-(methylamino)pyridin-2-yl]ethyl}-L-tyrosine]"
7,80,"CNc1cccc(CCOc2ccc(C[C@H](NC(=O)c3oc4ccccc4c3C)C(=O)O)cc2)n1 [Example 2.5, O-{2-[6-(methylamino)pyridin-2-yl]ethyl}-N-[(3-methyl-1-benzofuran-2-yl)carbonyl]-L-tyrosine]"
8,23,"CNc1cccc(CCOc2ccc(C[C@H](NC(=O)c3cnccc3C)C(=O)O)cc2)n1 [Example 1.10, O-{2-[6-(methylamino)pyridin-2-yl]ethyl}-N-[(4-methylpyridin-3-yl)carbonyl]-L-tyrosine]"
9,1,"O=C(N[C@@H](Cc1ccc(OCCc2ccc3c(n2)NCCC3)cc1)C(=O)O)c1sccc1Cl [Example 5.2, N-[(3-chlorothiophen-2-yl)carbonyl]-O-[2-(5,6,7,8-tetrahydro-1,8-naphthyridin-2-yl)ethyl]-L-tyrosine]"
10,< 1,"O=C(N[C@@H](Cc1ccc(OCCc2ccc3c(n2)NCCC3)cn1)C(=O)O)c1sccc1Cl [Example 6, N-[(3-chlorothiophen-2-yl)carbonyl]-3-{5-[2-(5,6,7,8-tetrahydro-1,8-naphthyridin-2-yl)ethoxy]pyridin-2-yl}-L-alanine]"
11,39,"CNc1cccc(CCOc2ccc(C[C@H](NC(=O)c3ccc(Cl)nc3Cl)C(=O)O)cc2)n1 [Example 2.4, N-[(2,6-dichloropyridin-3-yl)carbonyl]-O-{2-[6-(methylamino)pyridin-2-yl]ethyl}-L-tyrosine]"
12,131,"CNc1cccc(CCOc2ccc(C[C@H](NC(=O)c3ncccc3C)C(=O)O)cc2)n1 [Example 2.7, O-{2-[6-(methylamino)pyridin-2-yl]ethyl}-N-[(3-methylpyridin-2-yl)carbonyl]-L-tyrosine]"
